According to ChEMBL document CHEMBL1201862, “PubChem BioAssay data set” (2004):
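All cell lines were grown in 96-well plates and treated with compound for 48 hours. At the GI50, growth is halved.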 Activity calls are given as the source filed them. Cut-off read from the data, not from the text of the source: active = GI50 up to about 1.1 µM and inactive = higher.

Key:
Assay in all cases: growth of human tumour cells (NCI), 48 h
[1] = tested on: EKVX
[2] = tested on: OVCAR-8
[3] = tested on: MDA-N
[4] = tested on: SF-539
[5] = tested on: U-251
[6] = tested on: CCRF-CEM
[7] = tested on: SNB-19
[8] = tested on: NCI-H23
[9] = tested on: RPMI-8226
[10] = tested on: MDA-MB-231
[11] = tested on: UACC-62
[12] = tested on: Malme-3M
[13] = tested on: Hs-578T
[14] = tested on: CAKI-1
[15] = tested on: T47D
[16] = tested on: PC-3
[17] = tested on: NCI/ADR-RES
[18] = tested on: TK-10
[19] = tested on: OVCAR-5
[20] = tested on: ACHN
[21] = tested on: BT-549
[22] = tested on: MCF7
[23] = tested on: SF-268
[24] = tested on: HOP-92
[25] = tested on: UACC-257
[26] = tested on: SN12C
[27] = tested on: HCT-116
[28] = tested on: NCI-H522
[29] = tested on: SK-OV-3
[30] = tested on: M14
[31] = tested on: LOX IMVI
[32] = tested on: UO-31
[33] = tested on: HCT-15
[34] = tested on: IGROV-1
[35] = tested on: MDA-MB-435
[36] = tested on: DU-145
[37] = tested on: OVCAR-3
[38] = tested on: HT-29
[39] = tested on: SF-295
[40] = tested on: SK-MEL-5
[41] = tested on: A549
[42] = tested on: NCI-H460
[43] = tested on: SK-MEL-2
[44] = tested on: COLO 205
[45] = tested on: KM12
[46] = tested on: HOP-62
[47] = tested on: 786-0
[48] = tested on: SW-620
[49] = tested on: MOLT-4
[50] = tested on: SNB-75
[51] = tested on: NCI-H226
[52] = tested on: RXF 393
[53] = tested on: HCC 2998
[54] = tested on: SK-MEL-28
[55] = tested on: OVCAR-4
[56] = tested on: SR
[57] = tested on: K562
[58] = tested on: HL-60
[59] = tested on: A498

O=c1cc(CO)n(CCc2c[nH]c3ccccc23)cc1O
GI50 [1]: > 100 µM (inactive)
GI50 [2]: 69.7 µM (inactive)
GI50 [3]: 21.3 µM (inactive)
GI50 [4]: > 100 µM (inactive)
GI50 [5]: 39.6 µM (inactive)
GI50 [6]: 29.5 µM (inactive)
GI50 [7]: 37.1 µM (inactive)
GI50 [8]: 73.8 µM (inactive)
GI50 [9]: > 100 µM (inactive)
GI50 [10]: 31.3 µM (inactive)
GI50 [11]: 23.9 µM (inactive)
GI50 [12]: 13.4 µM (inactive)
GI50 [13]: 28.1 µM (inactive)
GI50 [14]: 46.2 µM (inactive)
GI50 [15]: 24.5 µM (inactive)
GI50 [16]: > 100 µM (inactive)
GI50 [17]: 32.3 µM (inactive)
GI50 [18]: > 100 µM (inactive)
GI50 [19]: 81.5 µM (inactive)
GI50 [20]: 66.5 µM (inactive)
GI50 [21]: > 100 µM (inactive)
GI50 [22]: 25.1 µM (inactive)
GI50 [23]: 20.7 µM (inactive)
GI50 [24]: 30.6 µM (inactive)
GI50 [25]: > 100 µM (inactive)
GI50 [26]: 36.2 µM (inactive)
GI50 [27]: 71.9 µM (inactive)
GI50 [28]: 24.7 µM (inactive)
GI50 [29]: 48.4 µM (inactive)
GI50 [30]: 47.1 µM (inactive)
GI50 [31]: > 100 µM (inactive)
GI50 [32]: 49.1 µM (inactive)
GI50 [33]: 51.2 µM
GI50 [34]: 86.5 µM (inactive)
GI50 [35]: > 100 µM (inactive)
GI50 [36]: 28.2 µM (inactive)
GI50 [37]: 26.2 µM (inactive)
GI50 [38]: 34 µM (inactive)
GI50 [39]: > 100 µM (inactive)
GI50 [40]: 47.8 µM (inactive)
GI50 [41]: > 100 µM (inactive)
GI50 [42]: 33.3 µM (inactive)
GI50 [43]: 30.1 µM (inactive)
GI50 [44]: 55 µM (inactive)
GI50 [45]: 42.1 µM (inactive)
GI50 [46]: 62.7 µM (inactive)
GI50 [47]: 34.8 µM (inactive)
GI50 [48]: > 100 µM (inactive)
GI50 [49]: 6.21 µM (inactive)

Cc1nnc2n(c1=O)CCN2C
GI50 [50]: 89.7 µM (inactive)
GI50 [1]: > 100 µM (inactive)
GI50 [2]: > 100 µM (inactive)
GI50 [51]: > 100 µM (inactive)
GI50 [3]: > 100 µM (inactive)
GI50 [52]: > 100 µM (inactive)
GI50 [4]: > 100 µM (inactive)
GI50 [5]: > 100 µM (inactive)
GI50 [53]: > 100 µM (inactive)
GI50 [6]: > 100 µM (inactive)
GI50 [7]: > 100 µM (inactive)
GI50 [8]: > 100 µM (inactive)
GI50 [9]: > 100 µM (inactive)
GI50 [54]: > 100 µM (inactive)
GI50 [10]: > 100 µM (inactive)
GI50 [11]: > 100 µM (inactive)
GI50 [12]: > 100 µM (inactive)
GI50 [13]: > 100 µM (inactive)
GI50 [15]: > 100 µM (inactive)
GI50 [16]: > 100 µM (inactive)
GI50 [55]: > 100 µM (inactive)
GI50 [56]: > 100 µM (inactive)
GI50 [18]: > 100 µM (inactive)
GI50 [19]: > 100 µM (inactive)
GI50 [20]: > 100 µM (inactive)
GI50 [21]: > 100 µM (inactive)
GI50 [22]: > 100 µM (inactive)
GI50 [23]: > 100 µM (inactive)
GI50 [24]: > 100 µM (inactive)
GI50 [26]: > 100 µM (inactive)
GI50 [27]: > 100 µM (inactive)
GI50 [29]: > 100 µM (inactive)
GI50 [30]: > 100 µM (inactive)
GI50 [31]: > 100 µM (inactive)
GI50 [32]: > 100 µM (inactive)
GI50 [33]: > 100 µM
GI50 [34]: > 100 µM (inactive)
GI50 [35]: > 100 µM (inactive)
GI50 [36]: > 100 µM (inactive)
GI50 [37]: > 100 µM (inactive)
GI50 [38]: > 100 µM (inactive)
GI50 [39]: > 100 µM (inactive)
GI50 [40]: > 100 µM (inactive)
GI50 [57]: > 100 µM (inactive)
GI50 [41]: > 100 µM (inactive)
GI50 [42]: > 100 µM (inactive)
GI50 [58]: > 100 µM (inactive)
GI50 [43]: > 100 µM (inactive)
GI50 [44]: > 100 µM (inactive)
GI50 [45]: > 100 µM (inactive)
GI50 [46]: > 100 µM (inactive)
GI50 [47]: > 100 µM (inactive)
GI50 [48]: > 100 µM (inactive)
GI50 [49]: > 100 µM (inactive)

CC(C)CNC1=NCC(C)S1 (configuration not stated)
GI50 [50]: > 100 µM (inactive)
GI50 [1]: > 100 µM (inactive)
GI50 [51]: > 100 µM (inactive)
GI50 [3]: > 100 µM (inactive)
GI50 [52]: > 100 µM (inactive)
GI50 [4]: > 100 µM (inactive)
GI50 [59]: > 100 µM (inactive)
GI50 [5]: > 100 µM (inactive)
GI50 [53]: > 100 µM (inactive)
GI50 [6]: > 100 µM (inactive)
GI50 [7]: > 100 µM (inactive)
GI50 [8]: > 100 µM (inactive)
GI50 [9]: > 100 µM (inactive)
GI50 [54]: > 100 µM (inactive)
GI50 [10]: > 100 µM (inactive)
GI50 [11]: > 100 µM (inactive)
GI50 [12]: > 100 µM (inactive)
GI50 [13]: > 100 µM (inactive)
GI50 [14]: > 100 µM (inactive)
GI50 [15]: > 100 µM (inactive)
GI50 [16]: > 100 µM (inactive)
GI50 [56]: > 100 µM (inactive)
GI50 [18]: > 100 µM (inactive)
GI50 [19]: > 100 µM (inactive)
GI50 [20]: > 100 µM (inactive)
GI50 [21]: > 100 µM (inactive)
GI50 [22]: > 100 µM (inactive)
GI50 [23]: 74.8 µM (inactive)
GI50 [24]: > 100 µM (inactive)
GI50 [25]: > 100 µM (inactive)
GI50 [27]: > 100 µM (inactive)
GI50 [28]: > 100 µM (inactive)
GI50 [29]: > 100 µM (inactive)
GI50 [30]: > 100 µM (inactive)
GI50 [31]: > 100 µM (inactive)
GI50 [32]: 79.3 µM (inactive)
GI50 [33]: > 100 µM
GI50 [34]: > 100 µM (inactive)
GI50 [35]: > 100 µM (inactive)
GI50 [36]: > 100 µM (inactive)
GI50 [37]: > 100 µM (inactive)
GI50 [38]: > 100 µM (inactive)
GI50 [39]: > 100 µM (inactive)
GI50 [40]: > 100 µM (inactive)
GI50 [57]: > 100 µM (inactive)
GI50 [41]: > 100 µM (inactive)
GI50 [42]: > 100 µM (inactive)
GI50 [58]: > 100 µM (inactive)
GI50 [43]: > 100 µM (inactive)
GI50 [44]: > 100 µM (inactive)
GI50 [45]: > 100 µM (inactive)
GI50 [46]: > 100 µM (inactive)
GI50 [48]: > 100 µM (inactive)
GI50 [49]: > 100 µM (inactive)
